Assay results reported in patent publication US20240358693A1, “METHODS OF TREATING PAIN” (Aisa Pharma, Inc., priority 2023, published 2024).

Tested on: participants with SSc-RP
Assay: Scleroderma Health Assessment Questionnaire (SHAQ): disability indices and visual analog scales
Assay type: in vivo, human
Procedure, shortened: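 Participants with SSc-RP completed the SHAQ at screening and each in-clinic visit. Standard and alternative disability indices (eight categories, 0–3; standard adjusts for aids/assistance) plus Raynaud's VAS on interference over the past 7 days. Reported as absolute change from baseline to end of each dosing period.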

[1] = Modified ITT, Part A, dose Cilnidipine 10 mg, Tadalafil 5 mg, or 10 mg + 5 mg
[2] = PP Population, Part A, sensitivity analysis, cilnidipine 10 mg and/or tadalafil 5 mg as labelled
[3] = Tadalafil 5 mg (N = 4), Modified ITT, Part A
[4] = Tadalafil 5 mg (N = 4), patients with diagnosis of SSc, sensitivity analysis, Modified ITT, Part A
[5] = Tadalafil 5 mg, Day 12, PP Population Part A, SSc patients
[6] = Tadalafil 5 mg, Day 12, PP Population, Part A
[7] = Tadalafil 5 mg, PP Population Part A, SSc patients

CN1CC(=O)N2[C@H](c3ccc4c(c3)OCO4)c3[nH]c4ccccc4c3C[C@@H]2C1=O [Tadalafil, tadalafil]
SHAQ alternative disability index, In Clinic Visit (Day 12), Mean [1]: 0.375
SHAQ alternative disability index, In Clinic Visit (Day 12), Median [1]: 0.250
SHAQ Visual Analogue Scale - Breathing Problems: Baseline, Mean [2]: 3.240
SHAQ Visual Analogue Scale - Breathing Problems: Baseline, Median [2]: 3.100
SHAQ Visual Analogue Scale - Breathing Problems: Change from Baseline (Day 12), Mean [2]: 0.500
SHAQ Visual Analogue Scale - Breathing Problems: Change from Baseline (Day 12), Median [2]: 1.050
SHAQ Visual Analogue Scale - Breathing Problems: In-Clinic Visit (Day 12), Mean [2]: 4.300
SHAQ Visual Analogue Scale - Breathing Problems: In-Clinic Visit (Day 12), Median [2]: 4.000
SHAQ Visual Analogue Scale - Breathing Problems: Percent Change from Baseline (Day 12), Mean [2]: −2.66%
SHAQ Visual Analogue Scale - Breathing Problems: Percent Change from Baseline (Day 12), Median [2]: 29.58%
SHAQ Visual Analogue Scale - Finger Ulcers: Baseline, Mean [2]: 1.700
SHAQ Visual Analogue Scale - Finger Ulcers: Baseline, Median [2]: 0.100
SHAQ Visual Analogue Scale - Finger Ulcers: Change from Baseline (Day 12), Mean [2]: 0.250
SHAQ Visual Analogue Scale - Finger Ulcers: Change from Baseline (Day 12), Median [2]: 0.000
SHAQ Visual Analogue Scale - Finger Ulcers: In-Clinic Visit (Day 12), Mean [2]: 2.325
SHAQ Visual Analogue Scale - Finger Ulcers: In-Clinic Visit (Day 12), Median [2]: 0.050
SHAQ Visual Analogue Scale - Finger Ulcers: Percent Change from Baseline (Day 12), Mean [2]: 6.10%
SHAQ Visual Analogue Scale - Finger Ulcers: Percent Change from Baseline (Day 12), Median [2]: 6.10%
SHAQ Visual Analogue Scale - Intestinal Problems: Baseline, Mean [2]: 2.700
SHAQ Visual Analogue Scale - Intestinal Problems: Baseline, Median [2]: 0.900
SHAQ Visual Analogue Scale - Intestinal Problems: Change from Baseline (Day 12), Mean [2]: −0.125
SHAQ Visual Analogue Scale - Intestinal Problems: Change from Baseline (Day 12), Median [2]: 0.000
SHAQ Visual Analogue Scale - Intestinal Problems: In-Clinic Visit (Day 12), Mean [2]: 3.025
SHAQ Visual Analogue Scale - Intestinal Problems: In-Clinic Visit (Day 12), Median [2]: 1.450
SHAQ Visual Analogue Scale - Intestinal Problems: Percent Change from Baseline (Day 12), Mean [2]: −6.92%
SHAQ Visual Analogue Scale - Intestinal Problems: Percent Change from Baseline (Day 12), Median [2]: 0.00%
SHAQ Visual Analogue Scale - Overall Disease Severity: Baseline, Mean [2]: 4.100
SHAQ Visual Analogue Scale - Overall Disease Severity: Baseline, Median [2]: 5.500
SHAQ Visual Analogue Scale - Overall Disease Severity: Change from Baseline (Day 12), Mean [2]: 0.625
SHAQ Visual Analogue Scale - Overall Disease Severity: Change from Baseline (Day 12), Median [2]: 0.700
SHAQ Visual Analogue Scale - Overall Disease Severity: In-Clinic Visit (Day 12), Mean [2]: 5.600
SHAQ Visual Analogue Scale - Overall Disease Severity: In-Clinic Visit (Day 12), Median [2]: 6.550
SHAQ Visual Analogue Scale - Overall Disease Severity: Percent Change from Baseline (Day 12), Mean [2]: 32.49%
SHAQ Visual Analogue Scale - Overall Disease Severity: Percent Change from Baseline (Day 12), Median [2]: 26.79%
SHAQ Visual Analogue Scale - Raynaud's: Baseline, Mean [2]: 4.860
SHAQ Visual Analogue Scale - Raynaud's: Baseline, Median [2]: 6.400
SHAQ Visual Analogue Scale - Raynaud's: Change from Baseline (Day 12), Mean [2]: −0.825
SHAQ Visual Analogue Scale - Raynaud's: Change from Baseline (Day 12), Median [2]: −0.500
SHAQ Visual Analogue Scale - Raynaud's: In-Clinic Visit (Day 12), Mean [2]: 4.950
SHAQ Visual Analogue Scale - Raynaud's: In-Clinic Visit (Day 12), Median [2]: 5.200
SHAQ Visual Analogue Scale - Raynaud's: Percent Change from Baseline (Day 12), Mean [2]: −19.71%
SHAQ Visual Analogue Scale - Raynaud's: Percent Change from Baseline (Day 12), Median [2]: −20.67%
SHAQ Overall Severity: Baseline, Mean [3]: 4.975
SHAQ Overall Severity: Baseline, Median [3]: 6.000
SHAQ Overall Severity: Change from Baseline, Mean [3]: 0.625,
SHAQ Overall Severity: Change from Baseline, Median [3]: 0.700
SHAQ Overall Severity: Day 12, Mean [3]: 5.600
SHAQ Overall Severity: Day 12, Median [3]: 6.550
SHAQ Overall Severity: Percent Change from Baseline, Mean [3]: 32.49%
SHAQ Overall Severity: Percent Change from Baseline, Median [3]: 26.790%
SHAQ Standard Disability Index: Baseline, Mean [4]: 0.594
SHAQ Standard Disability Index: Baseline, Median [4]: 0.625
SHAQ Standard Disability Index: Change from Baseline, Mean [4]: −0.063
SHAQ Standard Disability Index: Change from Baseline, Median [4]: −0.063
SHAQ Standard Disability Index: Day 12, Mean [4]: 0.531
SHAQ Standard Disability Index: Day 12, Median [4]: 0.563
SHAQ Standard Disability Index: Percent Change from Baseline, Mean [4]: −9.26%
SHAQ Standard Disability Index: Percent Change from Baseline, Median [4]: −11.11%
SHAQ Visual Analogue Scale - Breathing Problems, Change from Baseline, Mean [5]: 0.500
SHAQ Visual Analogue Scale - Breathing Problems, Change from Baseline, Median [5]: 1.050
SHAQ Visual Analogue Scale - Breathing Problems, Percent Change from Baseline, Mean [5]: −2.66%
SHAQ Visual Analogue Scale - Breathing Problems, Percent Change from Baseline, Median [5]: 29.58%
SHAQ Visual Analogue Scale - Finger Ulcers, Change from Baseline, Mean [5]: 0.250
SHAQ Visual Analogue Scale - Finger Ulcers, Change from Baseline, Median [5]: 0.000
SHAQ Visual Analogue Scale - Finger Ulcers, Percent Change from Baseline, Mean [5]: 6.10%
SHAQ Visual Analogue Scale - Finger Ulcers, Percent Change from Baseline, Median [5]: 6.10%
SHAQ Visual Analogue Scale - Intestinal Problems, Change from Baseline, Mean [5]: −0.125
SHAQ Visual Analogue Scale - Intestinal Problems, Change from Baseline, Median [5]: 0.000
SHAQ Visual Analogue Scale - Intestinal Problems, Percent Change from Baseline, Mean [5]: −6.92%
SHAQ Visual Analogue Scale - Intestinal Problems, Percent Change from Baseline, Median [5]: 0.00%
SHAQ Visual Analogue Scale - Overall Disease Severity, Change from Baseline, Mean [5]: 0.625
SHAQ Visual Analogue Scale - Overall Disease Severity, Change from Baseline, Median [5]: 0.700
SHAQ Visual Analogue Scale - Overall Disease Severity, Percent Change from Baseline, Mean [5]: 32.49%
SHAQ Visual Analogue Scale - Overall Disease Severity, Percent Change from Baseline, Median [5]: 26.79%
SHAQ Visual Analogue Scale - Pain, Change from Baseline, Mean [5]: 1.000
SHAQ Visual Analogue Scale - Pain, Change from Baseline, Median [5]: 0.800
SHAQ Visual Analogue Scale - Pain, Percent Change from Baseline, Mean [5]: 31.35%
SHAQ Visual Analogue Scale - Pain, Percent Change from Baseline, Median [5]: 10.81%
SHAQ Visual Analogue Scale - Raynaud's, Change from Baseline, Mean [5]: −0.825
SHAQ Visual Analogue Scale - Raynaud's, Change from Baseline, Median [5]: −0.500
SHAQ Visual Analogue Scale - Raynaud's, Percent Change from Baseline, Mean [5]: −19.71%
SHAQ Visual Analogue Scale - Raynaud's, Percent Change from Baseline, Median [5]: −20.67%
SHAQ Alternative Disability Index: Change from Baseline, Mean [6]: −0.094
SHAQ Alternative Disability Index: Change from Baseline, Median [6]: −0.125
SHAQ Alternative Disability Index: In-Clinic Visit (Day 12), Mean [6]: 0.375
SHAQ Alternative Disability Index: In-Clinic Visit (Day 12), Median [6]: 0.250
SHAQ Alternative Disability Index: Percent Change from Baseline, Mean [6]: −43.70%
SHAQ Alternative Disability Index: Percent Change from Baseline, Median [6]: −20.00%
SHAQ Standard Disability Index: Change from Baseline, Mean [6]: −0.063
SHAQ Standard Disability Index: Change from Baseline, Median [6]: −0.063
SHAQ Standard Disability Index: In-Clinic Visit (Day 12), Mean [6]: 0.531
SHAQ Standard Disability Index: In-Clinic Visit (Day 12), Median [6]: 0.563
SHAQ Standard Disability Index: Percent Change from Baseline, Mean [6]: −9.26%
SHAQ Standard Disability Index: Percent Change from Baseline, Median [6]: −11.11%
SHAQ Visual Analogue Scale - Pain: Change from Baseline, Mean [6]: 1.000
SHAQ Visual Analogue Scale - Pain: Change from Baseline, Median [6]: 0.800
SHAQ Visual Analogue Scale - Pain: In-Clinic Visit (Day 12), Mean [6]: 5.300
SHAQ Visual Analogue Scale - Pain: In-Clinic Visit (Day 12), Median [6]: 5.850
SHAQ Visual Analogue Scale - Pain: Percent Change from Baseline, Mean [6]: 31.35%
SHAQ Visual Analogue Scale - Pain: Percent Change from Baseline, Median [6]: 10.81%
SHAQ Visual Analogue Scale - Breathing Problems, In-Clinic Visit (Day 12), Mean [7]: 4.300
SHAQ Visual Analogue Scale - Breathing Problems, In-Clinic Visit (Day 12), Median [7]: 4.000
SHAQ Visual Analogue Scale - Finger Ulcers, In-Clinic Visit (Day 12), Mean [7]: 2.325
SHAQ Visual Analogue Scale - Finger Ulcers, In-Clinic Visit (Day 12), Median [7]: 0.050
SHAQ Visual Analogue Scale - Intestinal Problems, In-Clinic Visit (Day 12), Mean [7]: 3.025
SHAQ Visual Analogue Scale - Intestinal Problems, In-Clinic Visit (Day 12), Median [7]: 1.450
SHAQ Visual Analogue Scale - Overall Disease Severity, In-Clinic Visit (Day 12), Mean [7]: 5.600
SHAQ Visual Analogue Scale - Overall Disease Severity, In-Clinic Visit (Day 12), Median [7]: 6.550
SHAQ Visual Analogue Scale - Pain, In-Clinic Visit (Day 12), Mean [7]: 5.300
SHAQ Visual Analogue Scale - Pain, In-Clinic Visit (Day 12), Median [7]: 5.850
SHAQ Visual Analogue Scale - Raynaud's, In-Clinic Visit (Day 12), Mean [7]: 4.950
SHAQ Visual Analogue Scale - Raynaud's, In-Clinic Visit (Day 12), Median [7]: 5.200
